Laboratory results from patent publication US12728119B2, “Pharmaceutical composition for preventing or treating cancer comprising 3-ketoacyl CoA thiolase inhibitor and carnitine acylcarnitine carrier inhibitor” (NATIONAL CANCER CENTER, priority 2020, dated 2026).

System: MIA PaCa-2 cells
Test: Xenograft tumor model
Type: in vivo, Balb/c-nu mice
Method: MIA PaCa-2 cells (1×10 7) in 100 μl PBS were subcutaneously inoculated into 6-8 weeks old Balb/c-nu mice (Orient, Seoul, Korea) using a 1 ml syringe. After one week, the mice were divided into three groups: a control group (solvent treatment), a KN713 40 mg/kg/100 μl treatment group, and a KN713 80 mg/kg/200 μl treatment group. KN713 was administered intraperitoneally once a day (for 49 days, 6 days/week, n=7). The primary tumor size was measured weekly using a caliper, and the tumor volume was calculated using the formula V=(A×B^2)/2 (V=volume (mm^3), A=long diameter, B=short diameter). This experiment was reviewed and approved by the Institutional Animal Care and Use Committee (IACUC) of the National Cancer Center Research Institute, which was established by the International Association for Accreditation of Laboratory Animals (It was accredited by AAALAC International).

COc1ccc(CN2CCNCC2)c(OC)c1OC [KN713, trimetazidine]
tumor size (tumor volume) (KN713 40 mg/kg intraperitoneally once a day, column 3 (measured weekly), Control 148.59): 147.09 mm^3 | tumor size (tumor volume) (KN713 40 mg/kg intraperitoneally once a day, column 4 (measured weekly), Control 448.52): 319.40 mm^3 | tumor size (tumor volume) (KN713 40 mg/kg intraperitoneally once a day, column 5 (measured weekly), Control 748.89): 499.29 mm^3 | tumor size (tumor volume) (KN713 40 mg/kg intraperitoneally once a day, column 6 (measured weekly), Control 944.41): 593.57 mm^3 | tumor size (tumor volume) (KN713 40 mg/kg intraperitoneally once a day, column 7 (measured weekly), Control 1472.13): 790.38 mm^3 | tumor size (tumor volume) (KN713 40 mg/kg intraperitoneally once a day, column 8 (measured weekly), Control 1709.54): 965.18 mm^3 | tumor size (tumor volume) (KN713 80 mg/kg intraperitoneally once a day, column 3 (measured weekly), Control 148.59): 147.36 mm^3 | tumor size (tumor volume) (KN713 80 mg/kg intraperitoneally once a day, column 4 (measured weekly), Control 448.52): 279.36 mm^3 | tumor size (tumor volume) (KN713 80 mg/kg intraperitoneally once a day, column 5 (measured weekly), Control 748.89): 372.00 mm^3 | tumor size (tumor volume) (KN713 80 mg/kg intraperitoneally once a day, column 6 (measured weekly), Control 944.41): 420.82 mm^3 | tumor size (tumor volume) (KN713 80 mg/kg intraperitoneally once a day, column 7 (measured weekly), Control 1472.13): 589.49 mm^3 | tumor size (tumor volume) (KN713 80 mg/kg intraperitoneally once a day, column 8 (measured weekly), Control 1709.54): 555.42 mm^3 | tumor size (mouse model transplanted with MIA PaCa2, result in words): significantly suppressed
